{"source": "paper PMC6321168", "about": "“Comparative Study on Excretive Characterization of Main Components in Herb Pair Notoginseng-Safflower and Single Herbs by LC–MS/MS” (Pharmaceutics, 2018)", "test": "Fecal excretion study in rats after oral NS, SF or CNS (LC–MS/MS)", "type": "in vivo", "conditions": "rat feces", "procedure": "The animal room was set at constant temperature of 20 ± 2 °C with humidity of 50 ± 20% and 12/12 h light/dark cycle.\nEighteen male rats were fasted for 12 h before starting the experiment. The rats were divided into three groups at random (n = 6) and received NS (60 mg/kg), SF (50 mg/kg), and NS (60 mg/kg) + SF (50 mg/kg), respectively, by oral gavage. The rats were placed in separate metabolic cages. The urine samples were collected at 0–2, 2–4, 4–6, 6–8, 8–12, 12–24, 24–36, 36–48, 48–72, 72–96, and 96–120 h. The feces samples were collected at 0–4, 4–8, 8–12, 12–24, 24–36, 36–48, 48–72, 72–96, and 96–120 h. The urine volume was recorded and the dry feces were measured for each collection period. Samples were stored at −80 °C until analysis.\nFeces samples were homogenized in ultrapure water (1 g/15 mL), soaked for 30 min, ultrasonically extracted for 30 min and centrifuged at 9000 rpm for 8 min. An aliquot of 200 μL feces water extraction solution was mixed with 10 μL of IS and then extracted three times with water-saturated n-BuOH (150 μL). The upper organic phase was combined and evaporated to dryness using a ZLS-2 vacuum centrifugal concentrator. The residue was treated as the urine sample and a 1-μL aliquot was injected for LC–MS analysis.\nUltra fast liquid chromatography (UFLC) analysis was performed using a Shimadzu UFLC system (DGU-20A3R Degasser; LC-20AD pump; SIL-20AXR Autosampler; CTO-20AC Column Oven) (Nakagyo-Ku, Koyoto, Japan). […] Because of the different endogenous substances in the urine and feces samples, different elution gradients were used to alleviate the matrix effects for the analytes.\nThe mass spectrometric detection was performed on an ABSciex 4500 Qtrap mass spectrometer (ABSciex, Foster City, CA, USA) equipped with a negative electrospray ionization (ESI) interface using multiple reaction monitoring (MRM). The MS parameters were optimized under the selected ion monitoring conditions as follows: curtain gas, 35 psi; ionspray voltage, 4500 V; turbo gas temperature, 450 °C; GS1, 45 psi; GS2, 45 psi. All data were acquired and analyzed by Analyst software (Versions 1.6.2) from ABSciex.\nThe accumulative excretion percentage was calculated for each analyte as follows. Excretion at time (t) = [concentration of the analyte (ng/mL) at t] × total urine (or feces) volume (mL) at t. The cumulative excretion up to time t (mg) was expressed as a percent (%) cumulative excretion by dividing by the total amount of the analyte ingested (mg): % Cumulative Excretion = 100 × (Σt excretiont) total ingested."}
{"smiles": "CC(C)=CCC[C@](C)(O[C@@H]1O[C@H](CO)[C@@H](O)[C@H](O)[C@H]1O)[C@H]1CC[C@]2(C)[C@@H]1[C@H](O)C[C@@H]1[C@@]3(C)CC[C@H](O[C@@H]4O[C@H](CO)[C@@H](O)[C@H](O)[C@H]4O[C@@H]4O[C@H](CO)[C@@H](O)[C@H](O)[C@H]4O)C(C)(C)[C@@H]3CC[C@]12C", "note": "[ginsenoside Rd]", "values": [{"measurement": "concentration at 4 h", "setting": "male, Sprague Dawley, oral CNS 110 mg/kg, 4 h", "result": "204 ± 283", "unit": "ng/mL"}, {"measurement": "concentration at 8 h", "setting": "male, Sprague Dawley, oral CNS 110 mg/kg, 8 h", "result": "274 ± 65", "unit": "ng/mL"}, {"measurement": "concentration at 12 h", "setting": "male, Sprague Dawley, oral CNS 110 mg/kg, 12 h", "result": "164 ± 12", "unit": "ng/mL"}, {"measurement": "concentration at 24 h", "setting": "male, Sprague Dawley, oral CNS 110 mg/kg, 24 h", "result": "119 ± 51", "unit": "ng/mL"}, {"measurement": "concentration at 36 h", "setting": "male, Sprague Dawley, oral CNS 110 mg/kg, 36 h", "result": "653 ± 41", "unit": "ng/mL"}, {"measurement": "concentration at 48 h", "setting": "male, Sprague Dawley, oral CNS 110 mg/kg, 48 h", "result": "658 ± 72", "unit": "ng/mL"}, {"measurement": "concentration at 72 h", "setting": "male, Sprague Dawley, oral CNS 110 mg/kg, 72 h", "result": "153 ± 72", "unit": "ng/mL"}, {"measurement": "concentration at 96 h", "setting": "male, Sprague Dawley, oral CNS 110 mg/kg, 96 h", "result": "35 ± 34", "unit": "ng/mL"}, {"measurement": "concentration at 4 h", "setting": "male, Sprague Dawley, oral NS 60 mg/kg, 4 h", "result": "752 ± 79", "unit": "ng/mL"}, {"measurement": "concentration at 8 h", "setting": "male, Sprague Dawley, oral NS 60 mg/kg, 8 h", "result": "605 ± 22", "unit": "ng/mL"}, {"measurement": "concentration at 12 h", "setting": "male, Sprague Dawley, oral NS 60 mg/kg, 12 h", "result": "602 ± 49", "unit": "ng/mL"}, {"measurement": "concentration at 24 h", "setting": "male, Sprague Dawley, oral NS 60 mg/kg, 24 h", "result": "670 ± 34", "unit": "ng/mL"}, {"measurement": "concentration at 36 h", "setting": "male, Sprague Dawley, oral NS 60 mg/kg, 36 h", "result": "505 ± 14", "unit": "ng/mL"}, {"measurement": "concentration at 48 h", "setting": "male, Sprague Dawley, oral NS 60 mg/kg, 48 h", "result": "704 ± 26", "unit": "ng/mL"}, {"measurement": "concentration at 72 h", "setting": "male, Sprague Dawley, oral NS 60 mg/kg, 72 h", "result": "122 ± 5", "unit": "ng/mL"}, {"measurement": "concentration at 96 h", "setting": "male, Sprague Dawley, oral NS 60 mg/kg, 96 h", "result": "17 ± 1", "unit": "ng/mL"}, {"measurement": "concentration at 120 h", "setting": "male, Sprague Dawley, oral NS 60 mg/kg, 120 h", "result": "15 ± 2", "unit": "ng/mL"}, {"measurement": "Accumulative excretion amount", "setting": "oral CNS 110 mg/kg, 4 h", "result": "2.579 ± 3.701", "unit": "µg"}, {"measurement": "Accumulative excretion percentage", "setting": "oral CNS 110 mg/kg, 4 h", "result": "0.343±0.491", "unit": "%"}, {"measurement": "Excretion amount", "setting": "oral CNS 110 mg/kg, 4 h", "result": "2.579 ± 3.701", "unit": "µg"}, {"measurement": "Accumulative excretion amount", "setting": "oral CNS 110 mg/kg, 8 h", "result": "6.687 ± 3.535", "unit": "µg"}, {"measurement": "Accumulative excretion percentage", "setting": "oral CNS 110 mg/kg, 8 h", "result": "0.883±0.462", "unit": "%"}, {"measurement": "Excretion amount", "setting": "oral CNS 110 mg/kg, 8 h", "result": "4.108 ± 1.195", "unit": "µg"}, {"measurement": "Accumulative excretion amount", "setting": "oral CNS 110 mg/kg, 12 h", "result": "9.145 ± 3.524", "unit": "µg"}, {"measurement": "Accumulative excretion percentage", "setting": "oral CNS 110 mg/kg, 12 h", "result": "1.204±0.465", "unit": "%"}, {"measurement": "Excretion amount", "setting": "oral CNS 110 mg/kg, 12 h", "result": "2.459 ± 0.753", "unit": "µg"}, {"measurement": "Accumulative excretion amount", "setting": "oral CNS 110 mg/kg, 24 h", "result": "11.000 ± 3.256", "unit": "µg"}, {"measurement": "Accumulative excretion percentage", "setting": "oral CNS 110 mg/kg, 24 h", "result": "1.453±0.432", "unit": "%"}, {"measurement": "Excretion amount", "setting": "oral CNS 110 mg/kg, 24 h", "result": "1.855 ± 1.046", "unit": "µg"}, {"measurement": "Accumulative excretion amount", "setting": "oral CNS 110 mg/kg, 36 h", "result": "20.700 ± 5.415", "unit": "µg"}, {"measurement": "Accumulative excretion percentage", "setting": "oral CNS 110 mg/kg, 36 h", "result": "2.724±0.715", "unit": "%"}, {"measurement": "Excretion amount", "setting": "oral CNS 110 mg/kg, 36 h", "result": "9.700 ± 2.660", "unit": "µg"}, {"measurement": "Accumulative excretion amount", "setting": "oral CNS 110 mg/kg, 48 h", "result": "30.478 ± 7.801", "unit": "µg"}, {"measurement": "Accumulative excretion percentage", "setting": "oral CNS 110 mg/kg, 48 h", "result": "4.011±1.032", "unit": "%"}, {"measurement": "Excretion amount", "setting": "oral CNS 110 mg/kg, 48 h", "result": "9.778 ± 2.743", "unit": "µg"}, {"measurement": "Accumulative excretion amount", "setting": "oral CNS 110 mg/kg, 72 h", "result": "32.881 ± 8.515", "unit": "µg"}, {"measurement": "Accumulative excretion percentage", "setting": "oral CNS 110 mg/kg, 72 h", "result": "4.322±1.123", "unit": "%"}, {"measurement": "Excretion amount", "setting": "oral CNS 110 mg/kg, 72 h", "result": "2.403 ± 1.477", "unit": "µg"}, {"measurement": "Accumulative excretion amount", "setting": "oral CNS 110 mg/kg, 96 h", "result": "33.451 ± 8.722", "unit": "µg"}, {"measurement": "Accumulative excretion percentage", "setting": "oral CNS 110 mg/kg, 96 h", "result": "4.403±1.154", "unit": "%"}, {"measurement": "Excretion amount", "setting": "oral CNS 110 mg/kg, 96 h", "result": "0.570 ± 0.568", "unit": "µg"}, {"measurement": "Accumulative excretion percentage", "setting": "oral CNS 110 mg/kg, 120 h", "result": "4.404±1.151", "unit": "%"}, {"measurement": "Accumulative excretion amount", "setting": "oral NS 60 mg/kg, 4 h", "result": "10.755 ± 3.385", "unit": "µg"}, {"measurement": "Accumulative excretion percentage", "setting": "oral NS 60 mg/kg, 4 h", "result": "1.232±0.395", "unit": "%"}, {"measurement": "Excretion amount", "setting": "oral NS 60 mg/kg, 4 h", "result": "10.755 ± 3.385", "unit": "µg"}, {"measurement": "Accumulative excretion amount", "setting": "oral NS 60 mg/kg, 8 h", "result": "19.476 ± 6.086", "unit": "µg"}, {"measurement": "Accumulative excretion percentage", "setting": "oral NS 60 mg/kg, 8 h", "result": "2.244± 0.706", "unit": "%"}, {"measurement": "Excretion amount", "setting": "oral NS 60 mg/kg, 8 h", "result": "8.721 ± 2.813", "unit": "µg"}, {"measurement": "Accumulative excretion amount", "setting": "oral NS 60 mg/kg, 12 h", "result": "28.152 ± 8.861", "unit": "µg"}, {"measurement": "Accumulative excretion percentage", "setting": "oral NS 60 mg/kg, 12 h", "result": "3.232±1.024", "unit": "%"}, {"measurement": "Excretion amount", "setting": "oral NS 60 mg/kg, 12 h", "result": "8.676 ± 2.808", "unit": "µg"}, {"measurement": "Accumulative excretion amount", "setting": "oral NS 60 mg/kg, 24 h", "result": "37.713 ± 11.637", "unit": "µg"}, {"measurement": "Accumulative excretion percentage", "setting": "oral NS 60 mg/kg, 24 h", "result": "4.331±1.342", "unit": "%"}, {"measurement": "Excretion amount", "setting": "oral NS 60 mg/kg, 24 h", "result": "9.562 ± 2.795", "unit": "µg"}, {"measurement": "Accumulative excretion amount", "setting": "oral NS 60 mg/kg, 36 h", "result": "45.004 ± 14.004", "unit": "µg"}, {"measurement": "Excretion amount", "setting": "oral NS 60 mg/kg, 36 h", "result": "7.290 ± 2.427", "unit": "µg"}, {"measurement": "Accumulative excretion amount", "setting": "oral NS 60 mg/kg, 48 h", "result": "55.154 ± 17.338", "unit": "µg"}, {"measurement": "Accumulative excretion percentage", "setting": "oral NS 60 mg/kg, 48 h", "result": "6.332±1.991", "unit": "%"}, {"measurement": "Excretion amount", "setting": "oral NS 60 mg/kg, 48 h", "result": "10.151 ± 3.361", "unit": "µg"}, {"measurement": "Accumulative excretion amount", "setting": "oral NS 60 mg/kg, 72 h", "result": "56.907 ± 17.892", "unit": "µg"}, {"measurement": "Accumulative excretion percentage", "setting": "oral NS 60 mg/kg, 72 h", "result": "6.534±2.048", "unit": "%"}, {"measurement": "Excretion amount", "setting": "oral NS 60 mg/kg, 72 h", "result": "1.753 ± 0.562", "unit": "µg"}, {"measurement": "Accumulative excretion amount", "setting": "oral NS 60 mg/kg, 96 h", "result": "57.148 ± 17.967", "unit": "µg"}, {"measurement": "Accumulative excretion percentage", "setting": "oral NS 60 mg/kg, 96 h", "result": "6.563±2.059", "unit": "%"}, {"measurement": "Excretion amount", "setting": "oral NS 60 mg/kg, 96 h", "result": "0.241 ± 0.076", "unit": "µg"}, {"measurement": "Accumulative excretion amount", "setting": "oral NS 60 mg/kg, 120 h", "result": "57.371 ± 18.037", "unit": "µg"}, {"measurement": "Accumulative excretion percentage", "setting": "oral NS 60 mg/kg, 120 h", "result": "6.589±2.068", "unit": "%"}, {"measurement": "Excretion amount", "setting": "oral NS 60 mg/kg, 120 h", "result": "0.223 ± 0.076", "unit": "µg"}]}
